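Protocol summary: plate cells (96-well), add compound at 5 concentrations, incubate 48 h, interpolate endpoints linearly. Definition used: TGI = concentration required for complete inhibition of growth.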
Experiments:
Test in all cases: NCI tumour cell line growth inhibition, 48 h
RPMI-8226 leukemia = tested on: RPMI-8226 leukemia
NCI-H226 lung = tested on: NCI-H226 lung
MDA-N = tested on: MDA-N
SF-295 CNS = tested on: SF-295 CNS
COLO 205 colon = tested on: COLO 205 colon
MDA-MB-231 breast = tested on: MDA-MB-231 breast
MOLT-4 leukemia = tested on: MOLT-4 leukemia
TK-10 renal = tested on: TK-10 renal
K-562 leukemia = tested on: K-562 leukemia
SN12C renal = tested on: SN12C renal
NCI/ADR-RES ovarian = tested on: NCI/ADR-RES ovarian
HS 578T breast = tested on: HS 578T breast
HOP-62 NSCLC = tested on: HOP-62 NSCLC
MALME-3M melanoma = tested on: MALME-3M melanoma
T-47D breast = tested on: T-47D breast
OVCAR-3 ovarian = tested on: OVCAR-3 ovarian
MCF7 breast = tested on: MCF7 breast
PC-3 prostate = tested on: PC-3 prostate
NCI-H460 lung = tested on: NCI-H460 lung
SK-MEL-5 melanoma = tested on: SK-MEL-5 melanoma
LOX IMVI melanoma = tested on: LOX IMVI melanoma
BT-549 breast = tested on: BT-549 breast
HCT-116 colon = tested on: HCT-116 colon
OVCAR-5 ovarian = tested on: OVCAR-5 ovarian
UO-31 renal = tested on: UO-31 renal
HL-60(TB) leukemia = tested on: HL-60(TB) leukemia
OVCAR-4 ovarian = tested on: OVCAR-4 ovarian
DU-145 prostate = tested on: DU-145 prostate
SW-620 colon = tested on: SW-620 colon
UACC-62 melanoma = tested on: UACC-62 melanoma
ACHN renal = tested on: ACHN renal
HT29 colon = tested on: HT29 colon
SK-MEL-28 melanoma = tested on: SK-MEL-28 melanoma
786-0 renal = tested on: 786-0 renal
UACC-257 melanoma = tested on: UACC-257 melanoma
NCI-H522 lung = tested on: NCI-H522 lung
IGROV1 ovarian = tested on: IGROV1 ovarian
M14 melanoma = tested on: M14 melanoma
HCT-15 colon = tested on: HCT-15 colon
SF-539 CNS = tested on: SF-539 CNS
SNB-75 CNS = tested on: SNB-75 CNS
U251 CNS = tested on: U251 CNS
MDA-MB-435 = tested on: MDA-MB-435
HCC-2998 colon = tested on: HCC-2998 colon
CCRF-CEM leukemia = tested on: CCRF-CEM leukemia
SNB-19 CNS = tested on: SNB-19 CNS
SK-OV-3 ovarian = tested on: SK-OV-3 ovarian
OVCAR-8 ovarian = tested on: OVCAR-8 ovarian
EKVX NSCLC = tested on: EKVX NSCLC
KM12 colon = tested on: KM12 colon
CAKI-1 renal = tested on: CAKI-1 renal
SF-268 CNS = tested on: SF-268 CNS
SR leukemia = tested on: SR leukemia
NCI-H23 lung = tested on: NCI-H23 lung
SK-MEL-2 melanoma = tested on: SK-MEL-2 melanoma
A549 NSCLC = tested on: A549 NSCLC
HOP-92 NSCLC = tested on: HOP-92 NSCLC
RXF 393 renal = tested on: RXF 393 renal
A498 renal = tested on: A498 renal

O=C(/C=C/c1ccc(F)c(F)c1)OCCc1ccccc1
TGI (RPMI-8226 leukemia): > 100 µM | TGI (NCI-H226 lung): > 100 µM | TGI (MDA-N): > 100 µM | TGI (SF-295 CNS): > 100 µM | TGI (COLO 205 colon): > 100 µM | TGI (MDA-MB-231 breast): > 100 µM | TGI (MOLT-4 leukemia): > 100 µM | TGI (TK-10 renal): > 100 µM | TGI (K-562 leukemia): > 100 µM | TGI (SN12C renal): > 100 µM | TGI (NCI/ADR-RES ovarian): > 100 µM | TGI (HS 578T breast): > 100 µM | TGI (HOP-62 NSCLC): > 100 µM | TGI (MALME-3M melanoma): > 100 µM | TGI (T-47D breast): > 100 µM | TGI (OVCAR-3 ovarian): > 100 µM | TGI (MCF7 breast): > 100 µM | TGI (PC-3 prostate): > 100 µM | TGI (NCI-H460 lung): > 100 µM | TGI (SK-MEL-5 melanoma): > 100 µM | TGI (LOX IMVI melanoma): > 100 µM | TGI (BT-549 breast): > 100 µM | TGI (HCT-116 colon): > 100 µM | TGI (OVCAR-5 ovarian): > 100 µM | TGI (UO-31 renal): > 100 µM | TGI (HL-60(TB) leukemia): > 100 µM | TGI (OVCAR-4 ovarian): > 100 µM | TGI (DU-145 prostate): > 100 µM | TGI (SW-620 colon): > 100 µM | TGI (UACC-62 melanoma): > 100 µM | TGI (ACHN renal): > 100 µM | TGI (HT29 colon): > 100 µM | TGI (SK-MEL-28 melanoma): > 100 µM | TGI (786-0 renal): > 100 µM | TGI (UACC-257 melanoma): > 100 µM | TGI (NCI-H522 lung): > 100 µM | TGI (IGROV1 ovarian): > 100 µM | TGI (M14 melanoma): > 100 µM | TGI (HCT-15 colon): > 100 µM | TGI (SF-539 CNS): > 100 µM | TGI (SNB-75 CNS): > 100 µM | TGI (U251 CNS): > 100 µM | TGI (MDA-MB-435): > 100 µM | TGI (HCC-2998 colon): > 100 µM | TGI (CCRF-CEM leukemia): > 100 µM | TGI (SNB-19 CNS): > 100 µM | TGI (SK-OV-3 ovarian): > 100 µM | TGI (OVCAR-8 ovarian): > 100 µM | TGI (EKVX NSCLC): > 100 µM | TGI (KM12 colon): > 100 µM | TGI (CAKI-1 renal): > 100 µM | TGI (SF-268 CNS): > 100 µM | TGI (SR leukemia): > 100 µM | TGI (NCI-H23 lung): > 100 µM | TGI (SK-MEL-2 melanoma): > 100 µM | TGI (A549 NSCLC): > 100 µM

c1ccc2nc3cc4c(cc3nc2c1)NC12CCCCC1CC1=C(CCCC1)N42 (centres undefined)
TGI (RPMI-8226 leukemia): 5.52 µM | TGI (NCI-H226 lung): 6.57 µM | TGI (MDA-N): 7.06 µM | TGI (SF-295 CNS): > 10 µM | TGI (COLO 205 colon): 3.6 µM | TGI (MDA-MB-231 breast): > 10 µM | TGI (MOLT-4 leukemia): 5.25 µM | TGI (TK-10 renal): > 10 µM | TGI (K-562 leukemia): 5.5 µM | TGI (SN12C renal): 6.48 µM | TGI (NCI/ADR-RES ovarian): > 10 µM | TGI (HS 578T breast): 8.04 µM | TGI (HOP-62 NSCLC): > 10 µM | TGI (MALME-3M melanoma): 5.33 µM | TGI (T-47D breast): > 10 µM | TGI (OVCAR-3 ovarian): 5.03 µM | TGI (MCF7 breast): > 10 µM | TGI (PC-3 prostate): 6.64 µM | TGI (NCI-H460 lung): > 10 µM | TGI (SK-MEL-5 melanoma): 5.16 µM | TGI (LOX IMVI melanoma): > 10 µM | TGI (BT-549 breast): 4.72 µM | TGI (HCT-116 colon): > 10 µM | TGI (OVCAR-5 ovarian): > 10 µM | TGI (HL-60(TB) leukemia): 8.31 µM | TGI (OVCAR-4 ovarian): 6.96 µM | TGI (DU-145 prostate): > 10 µM | TGI (SW-620 colon): > 10 µM | TGI (UACC-62 melanoma): 9.63 µM | TGI (ACHN renal): > 10 µM | TGI (HT29 colon): > 10 µM | TGI (SK-MEL-28 melanoma): > 10 µM | TGI (786-0 renal): > 10 µM | TGI (UACC-257 melanoma): 7.03 µM | TGI (NCI-H522 lung): 8.37 µM | TGI (IGROV1 ovarian): > 10 µM | TGI (M14 melanoma): 6.35 µM | TGI (HCT-15 colon): > 10 µM | TGI (HOP-92 NSCLC): > 10 µM | TGI (SF-539 CNS): 7.7 µM | TGI (SNB-75 CNS): 7.06 µM | TGI (U251 CNS): > 10 µM | TGI (MDA-MB-435): 3.9 µM | TGI (HCC-2998 colon): > 10 µM | TGI (CCRF-CEM leukemia): 4.9 µM | TGI (SNB-19 CNS): > 10 µM | TGI (SK-OV-3 ovarian): > 10 µM | TGI (OVCAR-8 ovarian): > 10 µM | TGI (EKVX NSCLC): > 10 µM | TGI (KM12 colon): 8.14 µM | TGI (RXF 393 renal): 6.3 µM | TGI (CAKI-1 renal): > 10 µM | TGI (SF-268 CNS): > 10 µM | TGI (SR leukemia): 1.51 µM | TGI (A498 renal): > 10 µM | TGI (NCI-H23 lung): > 10 µM | TGI (SK-MEL-2 melanoma): 9.53 µM | TGI (A549 NSCLC): > 10 µM

Source: PubChem BioAssay (NCI)
